In this assay the target is T1, PME-1 (PP2A-specific methylesterase) (Homo sapiens, UniProt Q9Y570).
T1 sequence (Q9Y570 2-386): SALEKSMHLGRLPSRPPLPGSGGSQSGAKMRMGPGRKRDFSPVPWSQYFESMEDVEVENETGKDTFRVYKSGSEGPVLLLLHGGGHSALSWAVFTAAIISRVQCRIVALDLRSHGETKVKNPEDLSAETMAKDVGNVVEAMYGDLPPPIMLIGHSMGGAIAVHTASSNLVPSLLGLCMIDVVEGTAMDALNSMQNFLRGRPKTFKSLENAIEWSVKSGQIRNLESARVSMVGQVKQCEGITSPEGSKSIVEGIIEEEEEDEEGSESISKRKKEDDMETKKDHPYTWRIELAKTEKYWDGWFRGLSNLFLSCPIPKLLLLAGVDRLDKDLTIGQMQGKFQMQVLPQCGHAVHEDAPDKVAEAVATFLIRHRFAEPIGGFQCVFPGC
The class given is biochemical.

For `CCCCCCCCCCCCCCCCCCCC(=O)NCCc1c[nH]c2ccc(O)cc12` [EHT, eicosinoyl-5-hydroxytryptamide], inhibition was half-maximal at 3.9 µM (IC50).

Source of the values: paper PMC5038983 (The Journal of neuroscience : the official journal of the …, 2011).
